pIC50: −log10 of the molar value. Values joined by “and” are separate entries in the source; they are usually repeats but may differ in a detail not shown here. Equal entries are not always repeated.
Assays:
LUAD-0057BS1 cells = experiment: Growth inhibition (alamarBlue, 96 h); type: cell-based, human; details: for raw viability signal (Source Data Fig. 3b-c): LUAD-0057BS1, replicate sets
ECLC5B cells = experiment: Growth inhibition (alamarBlue, 96 h); type: cell-based, human; details: ECLC5B; for raw viability signal (Source Data Fig. 3b-c): replicates
MMNK1 cholangiocytes = experiment: Growth inhibition (alamarBlue, 96 h); type: cell-based, human; details: for raw viability signal (Source Data Fig. 3b-c): MMNK, replicates
[1] = system: ECLC5 luciferase cells implanted intracranially; experiment: Intracranial efficacy study; type: in vivo, NSG mice; details: Fig. 8e (middle panel) ECLC5 luminescence; 50 mg/kg BID

## COc1cc2c(Nc3ccc(Br)cc3F)ncnc2cc1OCC1CCN(C)CC1 [Vandetanib]
LUAD-0057BS1 cells; Homo sapiens, read-out: IC50 for Inhibition of Growth (95% CI), LUAD-0057BS1, alamarBlue, 96 h
  pIC50: 6.44
LUAD-0057BS1 cells; 0.01 nM
  raw viability signal (Source Data Fig. 3b-c): 17034.2 and 23597.8
LUAD-0057BS1 cells; 0.1 nM
  raw viability signal (Source Data Fig. 3b-c): 16283.3 and 21948.2
LUAD-0057BS1 cells; 1 nM
  raw viability signal (Source Data Fig. 3b-c): 16965.6 and 22300.3
LUAD-0057BS1 cells; 10 nM
  raw viability signal (Source Data Fig. 3b-c): 14389.1 and 16776.9 and 22078.9
LUAD-0057BS1 cells; 100 nM
  raw viability signal (Source Data Fig. 3b-c): 13528.1 and 13127 and 19841.4
LUAD-0057BS1 cells; 1000 nM
  raw viability signal (Source Data Fig. 3b-c): 5066.49 and 6132.7 and 5277.44
LUAD-0057BS1 cells; 10000 nM
  raw viability signal (Source Data Fig. 3b-c): 837.183 and 963.777 and 796.086
ECLC5B cells; 0.01 nM
  raw viability signal (Source Data Fig. 3b-c): 9731.41 and 6613.39 and 26019.7
ECLC5B cells; 0.1 nM
  raw viability signal (Source Data Fig. 3b-c): 10719.9 and 7303.21 and 26332.1
ECLC5B cells; 1 nM
  raw viability signal (Source Data Fig. 3b-c): 7568.32 and 25576
ECLC5B cells; 10 nM
  raw viability signal (Source Data Fig. 3b-c): 10376.5 and 7240.47 and 24146.6
ECLC5B cells; 100 nM
  raw viability signal (Source Data Fig. 3b-c): 8370.2 and 5534.52 and 20059.6
ECLC5B cells; 1000 nM
  raw viability signal (Source Data Fig. 3b-c): 1326.74 and 1175.68 and 3727.83
ECLC5B cells; 10000 nM
  raw viability signal (Source Data Fig. 3b-c): 1185.45 and 1144.21 and 2595.71
ECLC5B cells; Homo sapiens, read-out: IC50 for Inhibition of Growth (95% CI), alamarBlue, 96 h
  pIC50: 6.61
MMNK1 cholangiocytes; Homo sapiens, read-out: IC50 for Inhibition of Growth (95% CI), MMNK1, alamarBlue, 96 h
  pIC50: 5.72
MMNK1 cholangiocytes; 0.01 nM
  raw viability signal (Source Data Fig. 3b-c): 15966.6 and 15969.8
MMNK1 cholangiocytes; 0.1 nM
  raw viability signal (Source Data Fig. 3b-c): 15836.6
MMNK1 cholangiocytes; 1 nM
  raw viability signal (Source Data Fig. 3b-c): 15572.3
MMNK1 cholangiocytes; 10 nM
  raw viability signal (Source Data Fig. 3b-c): 14924.4 and 14679.1
MMNK1 cholangiocytes; 100 nM
  raw viability signal (Source Data Fig. 3b-c): 14912.5 and 14740.1
MMNK1 cholangiocytes; 1000 nM
  raw viability signal (Source Data Fig. 3b-c): 12405.8
MMNK1 cholangiocytes; 10000 nM
  raw viability signal (Source Data Fig. 3b-c): 1136.86 and 1108.37
[1]
  Area Under Curve Mean: -890991750

From PMC10518257 (Nature Cancer, 2023)
